The values that follow come from ChEMBL document CHEMBL4715862, “Anti-HIV Tigliane Diterpenoids from Wikstroemia scytophylla” (J Nat Prod, 2020).

Molecules are shown by their SMILES.

Data set [1] can be described thus: Cytotoxicity against human MT4 cells assessed as reduction in cell viability after 48 hrs by CellTiter-Glo assay. Type of data set: cell-based.
Data set [2] deals with Human immunodeficiency virus 1. Description: Antiviral activity against HIV-1 NL4-3 infected in human MT4 cells assessed as reduction in p24 gag protein expression incubated for 48 hrs by ELISA. Type of data set: functional, organism-based. The conditions noted are these: Human immunodeficiency virus 1, NL4-3, MT4, 48 h. Background: In an ELISA, binding on a coated surface is turned into a signal by an enzyme label.

Data set [3] is described as follows: Selectivity ratio of CC50 for cytotoxicity against human MT4 cells to IC50 for antiviral activity against HIV-1 NL4-3 infected in human MT4 cells. Type of data set: toxicity, cell-based. As to conditions: read-out: Ratio CC50/IC50.

`CCCCCCCC(=O)O[C@@]12[C@H](OC(=O)c3ccccc3)[C@@H](C)[C@]3(O)[C@@H]4C=C(C)C(=O)[C@@]4(O)[C@H](O)C(CO)=C[C@H]3[C@@H]1C2(C)C`: the CC50 at 48 h in data set [1] was above 164 nM. The 50% inhibitory concentration (IC50) in data set [2] is 12.8 nM.

As for `CCCCCCCC(=O)O[C@@]12[C@H](OC(=O)c3ccccc3)[C@@H](C)[C@@]3(O)[C@H]([C@@H]1C2(C)C)[C@@H](OO)C(CO)=C[C@]1(O)C(=O)C(C)=C[C@@H]31`, the selectivity ratio in data set [3] is below 5.

As to `CCCCCCCC(=O)O[C@@]12[C@H](OC(=O)c3ccccc3)[C@@H](C)[C@@]3(O)C(=C[C@](O)(CO)C[C@]4(O)C(=O)C(C)=C[C@@H]34)[C@@H]1C2(C)C`, the CC50 at 48 h in data set [1] is above 164 nM. Also, the IC50 in data set [2] was above 164 nM.

On to `CCCCCCCC(=O)O[C@@]12[C@H](OC(=O)CCCCC)[C@@H](C)[C@@]3(O)[C@@H](C(=O)C(CO)=C[C@]4(O)C(=O)C(C)=C[C@@H]34)[C@@H]1C2(C)C`, for which, in data set [1], the CC50 at 48 h was above 164 nM. The half-inhibitory concentration (IC50) in data set [2] is above 164 nM.

Consider `CCCCCCCC(=O)O[C@@]12[C@H](OC(=O)c3ccccc3)[C@@H](C)[C@@]3(O)[C@@H](C(=O)C(CO)=C[C@]4(O)C(=O)C(C)=C[C@@H]34)[C@@H]1C2(C)C`, for which the half-maximal cytotoxic concentration (CC50) at 48 h in data set [1] was above 164 nM. Moreover, the 50% inhibitory concentration (IC50) in data set [2] stood at 3.8 nM.

`CCCCCCCC(=O)O[C@@]12[C@H](OC(=O)c3ccccc3)[C@@H](C)[C@@]3(O)[C@H]([C@@H]1C2(C)C)[C@@H](O)C(CO)=C[C@]1(O)C(=O)C(C)=C[C@@H]31`: the CC50 at 48 h in data set [1] is above 164 nM. In addition, in data set [2], the IC50 was above 164 nM.

Consider `C=C(C)[C@]12C[C@@H](COC(=O)c3ccccc3)[C@@]34O[C@]5(O[C@@H]1[C@@H]3[C@@H]1O[C@]1(CO)[C@@H](O)[C@@]1(O)[C@H]4[C@H]([C@H](C)[C@@H]1OC(=O)c1ccccc1)[C@H](C)CCCCCC[C@H]5O)O2`, for which the CC50 at 48 h in data set [1] was above 5 nM. The IC50 in data set [2] was 0.07 nM.

For orientation: CC50 means the concentration at which the toxic effect on the cells reaches its halfway point. What is called IC50 is the concentration at which inhibition is half-maximal.
